Blank lines part the entries; values can stand above or below the compound they belong to.
Columns and labels:
[1] = Cytotoxicity against human BGC823 cells at 10 uM after 72 hrs by MTT assay; format: cell-based; conditions: bgc-823, 72 h
A549 = assay: Cytotoxicity against human A549 cells at 10 uM after 72 hrs by MTT assay; format: cell-based; conditions: a549, 72 h
RAW = assay: Cytotoxicity against mouse RAW cells at 50 uM after 72 hrs by MTT assay; format: cell-based
[2] = Cytotoxicity against […] cells at 50 uM after 72 hrs by MTT assay; format: cell-based; conditions: bv-2, 72 h
[3] = Cytotoxicity against human Bel7402 cells at 10 uM after 72 hrs by MTT assay; format: cell-based; conditions: bel-7402, 72 h
A2780 = assay: Cytotoxicity against human A2780 cells at 10 uM after 72 hrs by MTT assay; format: cell-based; conditions: a2780, 72 h
[4] = Cytotoxicity against human HCT8 cells at 10 uM after 72 hrs by MTT assay; format: cell-based; conditions: hct-8, 72 h
[5] = (§1) Antiinflammatory activity in […] cells assessed as inhibition of LPS-induced NO production measured 24 hrs post LPS-challenge by spectrophotometry; format: functional, cell-based; conditions: BV-2, 24 h
BV-2 = assay: as §1; format: functional, cell-based

SMILES: CON1C(=O)[C@@]2(C[C@@H]3N=C([C@@](C)(O)C[C@@H](C)[C@@]45ON4[C@H]4C[C@@]6(C(=O)N(OC)c7ccccc76)[C@H]6C[C@@H]5[C@@H]4CO6)[C@@H]4C[C@H]2OC[C@H]34)c2ccccc21 (some centres undefined)
Activity [1]: Non-toxic
Activity (A549): Non-toxic
Activity (RAW): Non-toxic
Activity [2]: Non-toxic
Activity [3]: Non-toxic
Activity (A2780): Non-toxic
Activity [4]: Non-toxic

SMILES: CON1C(=O)[C@@]2(C[C@@H]3N=C([C@](C)(O)C[C@@H](C)[C@@]45ON4[C@H]4C[C@@]6(C(=O)N(OC)c7ccccc76)[C@H]6C[C@@H]5[C@@H]4CO6)[C@@H]4C[C@H]2OC[C@H]34)c2ccccc21 (some centres undefined)
Activity [1]: Non-toxic
Activity (A549): Non-toxic
Activity (RAW): Non-toxic
Activity [2]: Non-toxic
Activity [3]: Non-toxic
Activity (A2780): Non-toxic
Activity [4]: Non-toxic
IC50 [5]: 10.2 µM
inhibition (BV-2): Dose-dependent effect

IC50 [5]: 3.9 µM
SMILES: COc1cc(/C=C/C(=O)CC(=O)/C=C/c2ccc(O)c(OC)c2)ccc1O [CURCUMIN]

SMILES: C/C=C1\CN2C(=O)[C@]3(c4cc(-c5cc([C@@]67C[C@H]8[C@H]9CO[C@@H]6C[C@H]9/C(=C/C)CN8C7=O)c(N)cc5OC)c(OC)cc4N)C[C@H]2[C@H]2CO[C@@H]3C[C@@H]12
Activity [1]: Non-toxic
Activity (A549): Non-toxic
Activity (RAW): Non-toxic
Activity [2]: Non-toxic
Activity [3]: Non-toxic
Activity (A2780): Non-toxic
Activity [4]: Non-toxic
